Converted amounts (≈) assume the structure as drawn. “And” between values parts separate entries of the source, which are not always exact repeats. Identical values can stand only once.
Legend:
[1] = test system: Mycobacterium tuberculosis; assay: Antimycobacterial activity against Mycobacterium tuberculosis clinical isolate without mutation incubated for 1 week by resazurin dye based fluorescence analysis; assay type: functional; conditions: time 1 weeks
[2] = biological target: T1, Amine oxidase [flavin-containing] A (Homo sapiens, UniProt P21397); assay: Inhibition of human recombinant MAO-A using tyramine as substrate by ELISA; assay type: toxicity
T1 sequence (P21397 whole entry): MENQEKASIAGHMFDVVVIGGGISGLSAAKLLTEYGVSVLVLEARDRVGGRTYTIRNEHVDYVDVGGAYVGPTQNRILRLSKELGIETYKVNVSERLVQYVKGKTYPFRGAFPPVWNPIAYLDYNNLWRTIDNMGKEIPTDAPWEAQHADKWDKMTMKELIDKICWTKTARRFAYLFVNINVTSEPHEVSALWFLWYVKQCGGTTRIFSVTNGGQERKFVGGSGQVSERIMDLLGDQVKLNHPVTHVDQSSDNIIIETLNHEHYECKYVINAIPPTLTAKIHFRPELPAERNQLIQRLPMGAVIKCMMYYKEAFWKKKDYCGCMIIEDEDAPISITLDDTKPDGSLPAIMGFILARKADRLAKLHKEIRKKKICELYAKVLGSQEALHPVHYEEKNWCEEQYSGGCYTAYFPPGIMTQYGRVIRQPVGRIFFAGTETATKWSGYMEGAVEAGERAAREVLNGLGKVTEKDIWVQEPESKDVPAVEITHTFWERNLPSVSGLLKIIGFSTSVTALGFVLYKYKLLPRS

[3] = biological target: T2, Amine oxidase [flavin-containing] B (Homo sapiens, UniProt P27338); assay: Inhibition of human recombinant MAO-B using tyramine as substrate by ELISA; assay type: toxicity
T2 sequence (P27338 whole entry): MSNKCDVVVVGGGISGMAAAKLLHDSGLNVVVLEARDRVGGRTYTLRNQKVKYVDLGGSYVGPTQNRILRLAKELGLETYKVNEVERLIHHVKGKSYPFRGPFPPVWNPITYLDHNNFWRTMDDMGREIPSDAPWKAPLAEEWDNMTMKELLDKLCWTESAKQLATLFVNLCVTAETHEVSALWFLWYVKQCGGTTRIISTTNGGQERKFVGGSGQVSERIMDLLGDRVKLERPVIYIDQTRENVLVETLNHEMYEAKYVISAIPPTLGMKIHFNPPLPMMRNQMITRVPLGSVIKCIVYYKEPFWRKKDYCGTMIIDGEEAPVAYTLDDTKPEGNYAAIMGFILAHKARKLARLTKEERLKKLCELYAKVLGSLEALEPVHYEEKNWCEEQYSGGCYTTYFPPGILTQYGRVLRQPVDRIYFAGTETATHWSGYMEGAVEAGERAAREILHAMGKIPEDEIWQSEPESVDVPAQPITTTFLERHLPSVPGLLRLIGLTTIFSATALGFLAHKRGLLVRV

Staphylococcus aureus = assay: Antibacterial activity against Staphylococcus aureus ATCC 25923; assay type: functional
[4] = biological target: T1, Amine oxidase [flavin-containing] A; assay: Inhibition of human recombinant MAO-A using kynuramine as substrate; assay type: toxicity
[5] = test system: Mycobacterium tuberculosis; assay: Antimycobacterial activity against Mycobacterium tuberculosis H37Rv assessed as prevention of bacterial growth measured after 7 days by alamar blue assay; assay type: functional; conditions: 168 h, time 7 day
[6] = biological target: T2, Amine oxidase [flavin-containing] B; assay: Inhibition of human recombinant MAO-B using benzylamine as substrate; assay type: toxicity
MAO-B = biological target: T3, MAO-B (Homo sapiens, UniProt P27338); assay: Potency index, ratio of test compound IC50 to linezolid IC50 for inhibition of human recombinant MAO-B using benzylamine as substrate; assay type: toxicity; conditions: probe benzylamine, read-out: Ratio IC50
T3 sequence (P27338 whole entry): T2 sequence (P27338 whole entry)

With `CO[C@H]1/C=C/O[C@@]2(C)Oc3c(C)c(O)c4c(O)c(c(/C=N/N5CCN(C)CC5)c(O)c4c3C2=O)NC(=O)/C(C)=C\C=C\[C@H](C)[C@H](O)[C@@H](C)[C@@H](O)[C@@H](C)[C@H](OC(C)=O)[C@@H]1C` [RIFAMPIN] the MIC50 [1] was less than 0.04 µM.
`NNC(=O)c1ccncc1` [ISONIAZID] was tested, and the MIC50 [1] was less than 0.2 µM.
Work on `O=C1O[C@H](Cn2ccnn2)CN1c1ccc(N2CCOCC2)c(F)c1` yielded an IC50 [2] of 31.9 µM, an IC50 [3] of 15.4 µM and an MIC (Staphylococcus aureus) of 1 µg/mL (≈ 2.88 µM).
`CS(=O)(=O)NC[C@H]1CN(c2ccc(N3CCOCC3)c(F)c2)C(=O)O1` gave an IC50 [4] greater than 40 µM, an MIC [5] of 2.14 µM (≈ 0.799 µg/mL) and an MIC50 [1] of 1.11 µM (≈ 0.414 µg/mL). The IC50 [6] was 2.95 µM.
For `CC(C)(C)c1ccc(S(=O)(=O)NC[C@H]2CN(c3ccc(N4CCOCC4)c(F)c3)C(=O)O2)cc1`, the IC50 [4] was 19.3 µM, the MIC [5] was 1.58 µM and > 25 µg/mL and the IC50 [6] was 13.2 µM.
In the case of `O=C(NC[C@H]1CN(c2ccc(N3CCOCC3)c(F)c2)C(=O)O1)c1cccs1`, the IC50 [4] is reported as greater than 40 µM, the MIC [5] is reported as 1.92 µM (≈ 0.778 µg/mL) and the MIC50 [1] is reported as 3.12 µM (≈ 1.27 µg/mL). For the same compound, the IC50 [6] was 33.1 µM.
`CCCCS(=O)(=O)NC[C@H]1CN(c2ccc(N3CCOCC3)c(F)c2)C(=O)O1` was tested, and the IC50 [4] was greater than 40 µM, the MIC [5] was 1.87 µM and > 25 µg/mL and the IC50 [6] was 25.4 µM.
With `O=C1O[C@@H](CNS(=O)(=O)C2CC2)CN1c1ccc(N2CCOCC2)c(F)c1` the IC50 [4] was greater than 40 µM, the MIC [5] was 1.95 µM and > 25 µg/mL and the IC50 [6] was 11.4 µM.
`CC(=O)NC[C@H]1CN(c2ccc(N3CCOCC3)c(F)c2)C(=O)O1` [LINEZOLID] was tested, and the MIC [5] was 2.31 µM (≈ 0.779 µg/mL) and the MIC50 [1] was 0.34 µM (≈ 0.115 µg/mL).
Work on `O=C1O[C@@H](CNS(=O)(=O)c2cccs2)CN1c1ccc(N2CCOCC2)c(F)c1` yielded an IC50 [4] greater than 40 µM, an MIC [5] of 1.76 µM (≈ 0.777 µg/mL) and an MIC50 [1] of 4.01 µM (≈ 1.77 µg/mL). The IC50 [6] was 27.3 µM.
`CCS(=O)(=O)NC[C@H]1CN(c2ccc(N3CCOCC3)c(F)c2)C(=O)O1` showed an IC50 [4] greater than 40 µM, an MIC [5] of 2.01 µM (≈ 0.779 µg/mL) and an MIC50 [1] of 0.74 µM (≈ 0.287 µg/mL). For the same compound, the IC50 [6] was greater than 40 µM and the selectivity ratio (MAO-B) was 64.6.
`O=C(NC[C@H]1CN(c2ccc(N3CCOCC3)c(F)c2)C(=O)O1)C1CC1` showed an IC50 [4] greater than 40 µM, an MIC [5] of 2.08 µM (≈ 0.756 µg/mL) and an MIC50 [1] of 1.11 µM (≈ 0.403 µg/mL). For the same compound, the IC50 [6] was 30.3 µM.

From ChEMBL document CHEMBL5532742, “Design and Synthesis of the Linezolid Bioisosteres to Resolve the Serotonergic Toxicity Associated with Linezolid” (ACS Med Chem Lett, 2024)
